Assay results: US20150351390A1, “COMPOSITIONS AND METHODS FOR AUXIN-ANALOG CONJUGATION” (PIONEER HI-BRED INTERNATIONAL, INC., priority 2012, published 2015)

Key:
[1] = tested on: Soybean seeds; assay: Phytotoxicity evaluation during soybean germination; format: in vivo; conditions: 1 μM in germination media, 10 days
Experimental: To evaluate the effect of synthetic auxin conjugates in plants, 2,4-D-Asp, 2,4-D-Glu, dicamba-Asp, and dicamba-Glu were synthesized (Irvine Chemistry Laboratory, Anaheim, Calif.) and tested for auxin effects during soybean germination.
Asp and Glu conjugates of 2,4-D and dicamba were dissolved in a small quantity of Na2CO3 and ethanol, respectively, diluted in ddH2O to obtain 10 mM stock solution, and filter sterilized. Soybean seeds of a Pioneer elite germplasm were sterilized with chlorine gas as following: a) two layers of seeds were placed in a 100×25 mm plastic Petri dish; b) in an exhaust fume hood, seeds were placed into a glass desiccator with a 250 mL beaker containing 100 mL bleach (5% NaOC1) and 3.5 mL 12N HCl was slowly added to the beaker; c) the lid was sealed closed on the desiccator and the seeds sterilized for at least 24 hr.
Sterilized soybean seeds were then imbibed in ddH2O under sterile conditions at 25° C. for 24 hours before germination test. For germination test, 6-8 imbibed seeds were placed on a 100×25 mm deep Petri dish plate containing 50 ml germination media supplemented with or without auxin herbicide conjugates. 1 L seed germination media contains 3.21 g GAMBORG B-5 basal medium (PhytoTech), 20 g sucrose, 5 g tissue culture agar, and is pH adjusted to 5.7. Media was autoclaved at 121° C. for 25 min and cooled to 60° C. before the addition of auxin conjugates. Germination was carried out in a Percival growth chamber at 25° C. under 18 hr light and 6 hr dark cycle at 90 to 150 μE/m2/s and grown for 10 days.

[2] = tested on: wild-type Col-0 Arabidopsis; assay: Root growth inhibition by 2,4-D, wild-type Arabidopsis; format: in vivo, Arabidopsis thaliana; conditions: Non transgenic (Col-0)
Experimental: Seeds of Arabidopsis ecotype Columbia (Col-0) and GH3 transgenic events were surface sterilized with 70% (v/v) ethanol for 5 minutes and 10% (v/v) bleach for 15 minutes. After being washed three times with distilled water, the seeds were incubated at 4° C. for 4 days. The seeds were then germinated on 1× Murashige and Skoog (MS) medium with a pH of 5.7, 3% (w/v) sucrose, and 0.8% (w/v) agar. After incubation for 3.5 days, the seedlings were transferred to the basal medium containing B5 vitamin, 3% (w/v) sucrose, […] MES (pH 5.7), 1.2% (w/v) agar, and filter sterilized auxin herbicides 2,4-D or dicamba was added to the media at 60° C. The concentrations of 2,4-D were 0 μM, 0.1 μM, 0.5 μM, 0.7 μM, and 1.0 μM. The concentrations of dicmaba were 0 μM, 1.0 μM, 5.0 μM, 7.0 μM, and 10 μM. […]
After 6 days on media with various concentrations of 2,4-D or dicamba, the length of the primary root was measured. […]
Transgenic Arabidopsis lines overexpressing SEQ ID NO:3 were generated and evaluated for 2,4-D herbicide response as described in Example 5. […] Root length of 8 plants per transgenic line was measured and the average was compared to untreated seedlings within the same genetic background.

O=C(O)COc1ccc(Cl)cc1Cl [2,4-D, 2,4-dichlorophenoxyacetic acid]
Soybean seed germination and growth [1]: seed germination was arrested
Percentage of the average root length compared with 0 nM 2,4-D treatment ([2]; 10 nM 2,4-D): 77%
Percentage of the average root length compared with 0 nM 2,4-D treatment ([2]; 100 nM 2,4-D): 58%
